Measurements taken from publication PMC9030932, “Development of Dibenzothiazepine Derivatives as Multifunctional Compounds for Neuropathic Pain” (Pharmaceuticals, 2022).
Where two headings read alike, the source gives them in different places. Marks after values point to notes of the source that are not given here.

Legend:
Type in all cases: cell-based
[1] = target: human norepinephrine transporter (hNET) (Homo sapiens, UniProt P23975); assay: Neurotransmitter transporter uptake assay, HEK-hNET; settings: read-out: % Inhibition at 10 μM hNET
[2] = target: human dopamine transporter (hDAT) (Homo sapiens, UniProt Q01959); assay: Neurotransmitter transporter uptake assay, HEK-hDAT; settings: for inhibition at 10 µM: read-out: % Inhibition at 10 μM hDAT
[3] = target: human serotonin transporter (hSERT) (Homo sapiens, UniProt P31645); assay: Neurotransmitter transporter uptake assay, HEK-hSERT; settings: for inhibition at 10 µM: read-out: % Inhibition at 10 μM hSERT
[4] = target: T1, hOPRM1 receptor (Homo sapiens, UniProt P35372); assay: PathHunter CHO-K1 OPRM1 β-arrestin recruitment assay
T1 construct: host or cells: CHO-K1

[5] = target: T2, human μ-opioid receptor (OPRM1) (Homo sapiens, UniProt P35372); assay: Intracellular calcium mobilization (FLIPR Tetra), HEK-hMOR agonism; settings: for % Stimulation at 10 μM, OPRM1 Agonism against DAMGO (3.9 μM): HEK-hMOR calcium mobilization, normalized to Emax of DAMGO at 3.9 μM
T2 construct: host or cells: HEK293 (constitutive expression)

[6] = target: T3, human κ-opioid receptor (OPRK1) (Homo sapiens, UniProt P41145); assay: Intracellular calcium mobilization (FLIPR Tetra), HEK-hKOR agonism; settings: read-out: % Stimulation at 10 μM, OPRK1 Agonism against DynorphinA (370 nM)
T3 construct: host or cells: HEK293 (constitutive expression)
Protocol: Intracellular calcium mobilization was measured by using FLIPR Tetra System (Molecular Devices, Sunnyvale, CA, USA) in accordance with manufacturer’s instruction. […] Subsequently, the plate was transferred to the FLIPR tetra system for treating 50 μL of the 5× compounds diluted in loading buffer and reading intracellular calcium mobilization. The final concentration of DMSO was 0.1%. […] A dose response curve was generated with the changes in Relative Fluorescence Units (∆RFU) versus Log10 dose.
Experimental details for Biology
Cell culture. HEK293 cells stably expressing human DA transporter (HEK-hDAT), human NE transporter (HEK-hNET) and human serotonin transporter (HEK-hSERT) were kindly provided by Professor Bryan Roth (University of North Carolina at Chapel Hill). And HEK293 cells constitutively expressing human κ- or μ- opioid receptor (HEK-hKOR_NM000912 or HEK-hMOR_NM000914) were constructed by Professor Ki Duk Park (in Korea Institute of Science […]
Europins DiscoveRx (Fremont, CA, USA). Cells were mainta ined in Dulbecco's modified Eagle's medium (HyClone, Logan, UT, USA) supplemented with 10%(v/v) fetal bovine serum (FBS, HyClone, Logan, UT, USA), penicillin (100 U/mL), and streptomycin (100 μg/mL) in the […]
for HEK-hDAT, HEK-hNET, HEK-hSERT, HEK-hKOR and HEK-hMOR respectively) in a humidified 5% CO2 incubator at 37 °C. In case of both HEK-hKOR and HEK-hMOR, cells were additionally maintained in 0.2 mg/mL hygromycin B, 1 μg/mL puromycin B, 1× non-essential amino acids. The cells were subcultured every 3-4 days. […]

[7] = 10 μM, HEK-hNET, mean ± SEM, n = 3–6
[8] = 10 μM, HEK-hSERT, mean ± SEM, n = 3–6

T2 sequence (P35372 whole entry): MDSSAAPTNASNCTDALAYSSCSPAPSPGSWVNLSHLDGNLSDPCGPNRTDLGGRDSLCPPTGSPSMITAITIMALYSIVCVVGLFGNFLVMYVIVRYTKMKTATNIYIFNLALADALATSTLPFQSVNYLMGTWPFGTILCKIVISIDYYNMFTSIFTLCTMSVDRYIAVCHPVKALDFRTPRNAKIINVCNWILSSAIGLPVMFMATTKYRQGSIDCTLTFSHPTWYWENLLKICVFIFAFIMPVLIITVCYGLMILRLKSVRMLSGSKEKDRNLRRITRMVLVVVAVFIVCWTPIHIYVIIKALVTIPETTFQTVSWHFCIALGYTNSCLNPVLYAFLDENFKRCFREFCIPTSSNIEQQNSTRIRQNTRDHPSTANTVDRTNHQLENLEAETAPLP
T1 sequence (P35372 whole entry): as above
T3 sequence (P41145 whole entry): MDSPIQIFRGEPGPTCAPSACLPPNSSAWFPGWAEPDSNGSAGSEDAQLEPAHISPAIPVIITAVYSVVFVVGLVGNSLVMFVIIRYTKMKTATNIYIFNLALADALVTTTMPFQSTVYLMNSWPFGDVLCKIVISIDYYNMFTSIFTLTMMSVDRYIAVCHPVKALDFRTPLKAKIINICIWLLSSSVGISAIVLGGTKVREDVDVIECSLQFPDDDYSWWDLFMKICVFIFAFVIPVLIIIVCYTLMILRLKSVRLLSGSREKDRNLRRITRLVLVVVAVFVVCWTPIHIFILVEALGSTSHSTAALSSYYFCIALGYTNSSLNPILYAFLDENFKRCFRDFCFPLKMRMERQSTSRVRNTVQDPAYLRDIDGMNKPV
Sequence of human dopamine transporter (hDAT) (Q01959 whole entry): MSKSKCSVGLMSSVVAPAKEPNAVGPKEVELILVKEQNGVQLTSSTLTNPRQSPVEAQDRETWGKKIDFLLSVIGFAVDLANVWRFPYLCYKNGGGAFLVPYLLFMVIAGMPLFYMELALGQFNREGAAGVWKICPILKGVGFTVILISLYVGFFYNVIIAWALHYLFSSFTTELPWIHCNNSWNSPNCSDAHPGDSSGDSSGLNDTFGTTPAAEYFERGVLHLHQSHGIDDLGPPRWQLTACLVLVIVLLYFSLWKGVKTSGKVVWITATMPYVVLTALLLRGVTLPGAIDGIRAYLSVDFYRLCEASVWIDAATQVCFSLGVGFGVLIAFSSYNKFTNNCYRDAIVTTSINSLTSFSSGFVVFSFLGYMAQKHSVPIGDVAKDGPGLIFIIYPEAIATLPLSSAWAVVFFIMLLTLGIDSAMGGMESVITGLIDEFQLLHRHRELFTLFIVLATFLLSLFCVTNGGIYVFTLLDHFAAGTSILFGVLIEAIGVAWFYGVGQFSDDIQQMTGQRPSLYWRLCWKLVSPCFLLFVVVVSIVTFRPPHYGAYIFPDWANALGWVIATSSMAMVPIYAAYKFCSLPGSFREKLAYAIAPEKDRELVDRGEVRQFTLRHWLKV
Sequence of human norepinephrine transporter (hNET) (P23975 whole entry): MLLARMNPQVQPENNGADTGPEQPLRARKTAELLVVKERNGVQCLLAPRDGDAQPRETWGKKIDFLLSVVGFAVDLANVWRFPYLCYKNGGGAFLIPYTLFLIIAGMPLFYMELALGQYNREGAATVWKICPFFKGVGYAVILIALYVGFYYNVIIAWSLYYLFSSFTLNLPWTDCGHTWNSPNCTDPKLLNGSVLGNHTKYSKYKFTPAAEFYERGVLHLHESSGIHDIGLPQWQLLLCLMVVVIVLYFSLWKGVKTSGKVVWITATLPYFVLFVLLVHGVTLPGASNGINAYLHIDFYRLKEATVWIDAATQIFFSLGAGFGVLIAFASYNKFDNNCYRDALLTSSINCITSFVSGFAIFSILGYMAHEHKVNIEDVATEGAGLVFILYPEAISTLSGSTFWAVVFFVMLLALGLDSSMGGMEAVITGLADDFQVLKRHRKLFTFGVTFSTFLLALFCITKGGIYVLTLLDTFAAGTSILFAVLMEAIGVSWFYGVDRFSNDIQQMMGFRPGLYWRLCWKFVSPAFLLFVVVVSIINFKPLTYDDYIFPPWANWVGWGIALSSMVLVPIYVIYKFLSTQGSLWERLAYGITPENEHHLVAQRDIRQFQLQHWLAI
Sequence of human serotonin transporter (hSERT) (P31645 whole entry): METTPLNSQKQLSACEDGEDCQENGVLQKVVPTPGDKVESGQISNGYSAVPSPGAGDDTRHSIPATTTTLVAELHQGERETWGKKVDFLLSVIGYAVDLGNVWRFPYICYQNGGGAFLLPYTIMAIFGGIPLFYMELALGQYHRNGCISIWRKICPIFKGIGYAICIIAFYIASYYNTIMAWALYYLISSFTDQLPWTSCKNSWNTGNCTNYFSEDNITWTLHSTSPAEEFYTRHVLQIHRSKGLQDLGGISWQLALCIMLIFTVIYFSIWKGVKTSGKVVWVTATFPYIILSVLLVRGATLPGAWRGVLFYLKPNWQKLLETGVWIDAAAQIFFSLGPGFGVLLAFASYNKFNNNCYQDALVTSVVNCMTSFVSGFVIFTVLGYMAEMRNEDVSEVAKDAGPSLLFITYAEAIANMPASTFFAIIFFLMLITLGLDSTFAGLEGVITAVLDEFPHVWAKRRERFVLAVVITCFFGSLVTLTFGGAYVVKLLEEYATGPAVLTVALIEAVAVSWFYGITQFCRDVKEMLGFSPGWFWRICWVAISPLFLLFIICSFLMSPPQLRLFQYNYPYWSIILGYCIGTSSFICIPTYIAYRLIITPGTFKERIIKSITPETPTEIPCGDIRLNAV

| SMILES | inhibition at 10 µM [1, 7] [%] | inhibition at 10 µM [2] [%] | inhibition at 10 µM [3, 8] [%] | EC50 [4] [µM] | % Stimulation at 10 μM, OPRM1 Agonism against DAMGO (3.9 μM) [5] [% ^b] | activation at 10 µM [6] [%] | also measured |
| --- | --- | --- | --- | --- | --- | --- | --- |
| CN1c2ccccc2C(NCCc2c[nH]c3ccc(O)cc23)c2ccc(Cl)cc2S1(=O)=O (centres unmarked) [Compound 7, 3-chloro-11-((2-(5-hydroxy-1H-indol-3-yl)ethyl)amino)-6-methyl-6,11-dihydrodibenzo[c,f][1,2]thiazepine 5,5-dioxide] | 30.8 ± 2.8 | 36.2 ± 2.7 | 37.5 ± 2.5 |  |  |  |  |
| CN1c2ccccc2C(NCC(=O)NCCc2c[nH]c3ccc(O)cc23)c2ccc(Cl)cc2S1(=O)=O (centres unmarked) [Compound 11a, 2-((3-chloro-6-methyl-5,5-dioxido-6,11-dihydrodibenzo[c,f][1,2]thiazepin-11-yl)amino)-N-(2-(5-hydroxy-1H-indol-3-yl)ethyl)acetamide] | 13.2 ± 2.3 | 33.2 ± 6.5 | 50.9 ± 4.1 |  |  |  |  |
| CN1c2ccccc2C(NCCC(=O)NCCc2c[nH]c3ccc(O)cc23)c2ccc(Cl)cc2S1(=O)=O (centres unmarked) [Compound 11b, 3-((3-chloro-6-methyl-5,5-dioxido-6,11-dihydrodibenzo[c,f][1,2]thiazepin-11-yl)amino)-N-(2-(5-hydroxy-1H-indol-3-yl)ethyl)propanamide] | 54.8 ± 3.7 | 44.9 ± 4.2 |  |  |  |  | IC50 [3]: 4.08 ± 0.032 µM |
| CN1c2ccccc2C(NCCCC(=O)NCCc2c[nH]c3ccc(O)cc23)c2ccc(Cl)cc2S1(=O)=O (centres unmarked) [Compound 11c, 4-((3-chloro-6-methyl-5,5-dioxido-6,11-dihydrodibenzo[c,f][1,2]thiazepin-11-yl)amino)-N-(2-(5-hydroxy-1H-indol-3-yl)ethyl)butanamide] | 24.3 ± 7.4 | 41.3 ± 5.7 | 35.5 ± 3.7 |  |  |  |  |
| CN1c2ccccc2C(NCCCCC(=O)NCCc2c[nH]c3ccc(O)cc23)c2ccc(Cl)cc2S1(=O)=O (centres unmarked) [Compound 11d, 5-((3-chloro-6-methyl-5,5-dioxido-6,11-dihydrodibenzo[c,f][1,2]thiazepin-11-yl)amino)-N-(2-(5-hydroxy-1H-indol-3-yl)ethyl)pentanamide] | 21.1 ± 4.7 | 41.3 ± 7.6 |  |  |  |  | IC50 ([3]; HEK-hSERT, neurotransmitter uptake, mean ± SEM, n = 3–6, read-out: IC50 hSERT): 10.1 ± 0.5 µM |
| CN1c2ccccc2C(NCCCCCC(=O)NCCc2c[nH]c3ccc(O)cc23)c2ccc(Cl)cc2S1(=O)=O (centres unmarked) [Compound 11e, 6-((3-chloro-6-methyl-5,5-dioxido-6,11-dihydrodibenzo[c,f][1,2]thiazepin-11-yl)amino)-N-(2-(5-hydroxy-1H-indol-3-yl)ethyl)hexanamide] | 30.1 ± 5 | 40.2 ± 0.12 |  |  |  |  | IC50 [3]: 6.74 ± 0.38 µM |
| COc1ccc2[nH]cc(CCNC(=O)CCCCCCNC3c4ccccc4N(C)S(=O)(=O)c4cc(Cl)ccc43)c2c1 (centres unmarked) [Compound 13, 7-((3-chloro-6-methyl-5,5-dioxido-6,11-dihydrodibenzo[c,f][1,2]thiazepin-11-yl)amino)-N-(2-(5-methoxy-1H-indol-3-yl)ethyl)heptanamide] | 23.7 ± 7.5 | 25.6 ± 9.7 | 39.7 ± 6.3 |  |  |  |  |
| CN1c2ccccc2C(NCCCCCCC(=O)NCCc2c[nH]c3ccccc23)c2ccc(Cl)cc2S1(=O)=O (centres unmarked) [Compound 14, N-(2-(1H-indol-3-yl)ethyl)-7-((3-chloro-6-methyl-5,5-dioxido-6,11-dihydrodibenzo[c,f][1,2]thiazepin-11-yl)amino)heptanamide] | 65.2 ± 3.4 |  | 50.3 ± 3.4 | 0.113 ± 0.003 | 62.3 ± 2.9 | < 10 | IC50 [2]: 3.81 ± 1.4 µM |
| CN1c2ccccc2C(NCCCCCCCC=CCc2c[nH]c3ccccc23)c2ccc(Cl)cc2S1(=O)=O (centres unmarked) [Compound 21] | 5.64 ± 4.5 | 8.92 ± 6.1 | 26.3 ± 6.4 | > 10 | <10 | < 10 |  |
| CN1c2ccccc2C(NCCCCCCCCCCc2c[nH]c3ccccc23)c2ccc(Cl)cc2S1(=O)=O (centres unmarked) [Compound 22] | 5.56 ± 0.07 | 1.95 ± 0.06 | 17.9 ± 7.5 | > 10 | 11.8 ± 1.9 | < 10 |  |
| CC(C)C[C@H](CNC(=O)CCCCCCNC1c2ccccc2N(C)S(=O)(=O)c2cc(Cl)ccc21)CC(=O)O (stereo partly drawn) [Compound 25, (3S)-3-((7-((3-chloro-6-methyl-5,5-dioxido-6,11-dihydrodibenzo[c,f][1,2]thiazepin-11-yl)amino)heptanamido)methyl)-5-methylhexanoic acid] | 21 ± 2.6 | 17.6 ± 8.9 | 11.3 ± 2.5 | > 10 |  | < 10 | EC50 [5]: 2.41 ± 0.144 µM |
| CN(CCCCCCCNC1c2ccccc2N(C)S(=O)(=O)c2cc(Cl)ccc21)CCC(Oc1ccc(C(F)(F)F)cc1)c1ccccc1 (centres unmarked) [Compound 26, 3-chloro-6-methyl-11-((7-(methyl(3-phenyl-3-(4-(trifluoromethyl)phenoxy)propyl)amino)heptyl)amino)-6,11-dihydrodibenzo[c,f][1,2]thiazepine 5,5-dioxide] | 7.07 ± 4.1 | 23.6 ± 12 |  | > 10 | <10 | < 10 | IC50 [3]: 2.18 ± 0.37 µM |
| CN1c2ccccc2C(NCCCCCCCNCCc2c[nH]c3ccc(C#N)cc23)c2ccc(Cl)cc2S1(=O)=O (centres unmarked) [Compound 27, 3-(2-((7-((3-chloro-6-methyl-5,5-dioxido-6,11-dihydrodibenzo[c,f][1,2]thiazepin-11-yl)amino)heptyl)amino)ethyl)-1H-indole-5-carbonitrile] | 63.6 ± 4.4 |  |  | 3.28 ± 0.642 | 65.9 ± 2.8 | < 10 | IC50 [2]: 4.98 ± 2.1 µM; IC50 [3]: 0.462 ± 0.034 µM |
| Fc1ccc(C(OCCN2CCN(CCCc3ccccc3)CC2)c2ccc(F)cc2)cc1 [GBR12909, reference compound] |  | 85.9 ± 0.27 |  |  |  |  | inhibition at 10 µM [1]: 79.1 ± 0.71%; inhibition at 10 µM [3]: 70.6 ± 1.3% |
| CNCCC(Oc1ccccc1OC)c1ccccc1 (centres unmarked) [Nisoxetine, reference compound] |  | 79.7 ± 1.4 |  |  |  |  | inhibition at 10 µM [3]: 79.8 ± 0.32% |
